Several values for one entry are separate records, joined by “and”; a condition that tells them apart may be missing. Equal values may be shown once. Read-outs that look alike come from different tables or passages of the source.
System: Klebsiella isolates
Assay: Acoustic flow cytometry-assisted susceptibility test (FAST), MICFAST and S/NS, Klebsiella isolates
Assay type: cell-based, Klebsiella pneumoniae, Klebsiella oxytoca
Protocol: A 1 mL aliquot of bacterial suspension was centrifuged, washed and resuspended in 1 mL filtered Hank's Buffered Salt Solution (HBSS; comprising about 0.137 M NaCl, about 5.4 mM KCl, about 0.25 mM Na2HPO4, about 0.1 g Glucose, about 0.44 mM KH2PO4, 1.3 mM CaCl2), 1.0 mM MgSO4, about 1.3 mM CaCl2), 1.0 mM MgSO4, and about 4.2 mM NaHCO3) and diluted in series (e.g., in a 1:10 serial dilution) to a final 1:1000 dilution.
One μL (microliter) of SYTO 9 stain (e.g., ThermoFisher Scientific) working stock solution was added to the final dilution at a final concentration of 5 μM and incubated for 5 minutes before counting bacterial events by acoustic flow cytometer (AFC) (Attune, ThermoFisher, Eugene, Oreg., USA), which was used to prepare a standardised inoculum density for susceptibility testing.
An aliquot of bacterial suspension was added to 50 mL centrifuge tubes (Corning, N.Y.) containing 9 mL of pre-warmed (37° C.) filtered MHB to produce a final density of 5×10^5-1×10^6 bacteria per mL. This suspension was incubated at 37° C. with shaking at 100 RPM for 30 minutes to obtain an actively dividing culture. An aliquot of antibiotic working solution from the previously described dilution series (appropriate to the concentration tested) was then added to each tube before a further 30-minute incubation with shaking, during which time a microbroth dilution (MBD) plate was prepared for overnight incubation at 37° C. as previously described in Clinical and Laboratory Standards Institute (2015) Performance Standards for Antimicrobial Susceptibility Testing: Informational Supplement. CLSI document M100-S25. Clinical and Laboratory Standards Institute, 950, West Valley Road, Suite 2500, Wayne, Pa., 19087, USA.
One millilitre of bacterial suspension from each antibiotic concentration was harvested by centrifugation at 7800×g for 5 minutes, washed and diluted 1:10 in filtered HBSS in a light-impermeable microcentrifuge tube, then stained with SYTO 9 stain at a final concentration of 5 μM, and incubated for 5 min before AFC sampling. Hoechst 33342 dye (NucBlue, Thermo Fisher Scientific, Eugene, Oreg., USA) and a SYTO 9/propidium iodide (PI) combination (Thermo Fisher Scientific) were used in a series of replicate experiments.
The acoustic flow cytometer employed was Attune acoustic flow cytometer (Thermo Fisher Scientific), having installed therein a 488 nm blue laser with a 530/30 nm filter on the photomultiplier tube for measuring fluorescence of cells assayed. Alternatively, the Attune NxT acoustic flow cytometer (Thermo Fisher Scientific) can be employed. AFC was calibrated at the beginning of each acquisition session using fluorescently labelled size calibration beads, in accordance with the manufacturer's instructions (ThermoFisher Scientific). The AFC settings were as follows: Forward Scatter (FSC) voltage 3100, FSC threshold 4×1000 AND, blue laser 1 (BL1—530/30 nm) voltage 1900, BL1 threshold 1×1000 AND, high sensitivity, flow rate 25 μL/minute, and an acquisition volume of 125 μL. Acquisition was halted after either collection of 20,000 events across all gates, or after 3 minutes, with each sample acquired in technical triplicate.
Collected data was exported in the FCS 3.0 file format and analysed in Flow v10.0 (FlowJo LLC, Ashland, Oreg., USA) by a single user, blinded to the MIC results by BMD (MICBMD).
Subsequent to quantitative MICFAST determination, the acoustic flow cytometer data were re-analysed in silico to produce a limited sub-set for qualitative susceptibility determination. The six antibiotic dilutions (0 mg/L, 0.25 mg/L, 1 mg/L, 2 mg/L, 4 mg/L and 16 mg/L) most relevant to qualitative susceptibility assessment were used. In silico analysis was restricted to the first technical triplicate of each recorded sample. Gating strategies remained consistent, with the addition of a gate restricting analysis to only those events recorded in the first 60 seconds of acquisition.

[1] = K. pneumoniae isolate 18397, biological replicates
[2] = K. pneumoniae isolate 43292, biological replicates
[3] = K. pneumoniae isolate 43358, biological replicates
[4] = K. pneumoniae isolate 44271, biological replicates
[5] = K. pneumoniae isolate ATCC 700603, biological replicates
[6] = K. pneumoniae isolate ATCC BAA1705, biological replicates
[7] = K. pneumoniae isolate K1, biological replicates
[8] = K. pneumoniae isolate K14, biological replicates
[9] = K. pneumoniae isolate KS11, biological replicates

Compound: C[C@@H](O)[C@H]1C(=O)N2C(C(=O)O)=C(S[C@@H]3CN[C@H](C(=O)N(C)C)C3)[C@H](C)[C@H]12 [meropenem]
- MICFAST (K. pneumoniae ATCC 700603 (carbapenem susceptible control), limited clinical screen concentrations): ≤0.25
- MICFAST (K. pneumoniae ATCC BAA1705 (carbapenem resistant control), limited clinical screen concentrations): >16
- FAST S/NS [1]: S (S: MIC ≤2 mg/L)
- MICFAST [1]: ≤0.25 mg/L
- FAST S/NS [2]: S (S: MIC ≤2 mg/L)
- MICFAST [2]: ≤0.25 mg/L
- FAST S/NS [3]: S (S: MIC ≤2 mg/L)
- MICFAST [3]: ≤0.25 mg/L
- FAST S/NS [4]: S (S: MIC ≤2 mg/L)
- MICFAST [4]: 0.5 mg/L
- FAST S/NS [5]: S (S: MIC ≤2 mg/L)
- MICFAST [5]: ≤0.25 mg/L
- FAST S/NS [6]: NS (NS: MIC >2 mg/L)
- MICFAST [6]: 8 mg/L
- FAST S/NS [7]: NS (NS: MIC >2 mg/L)
- MICFAST [7]: 64 mg/L (2×) and 32 mg/L
- FAST S/NS [8]: NS (NS: MIC >2 mg/L)
- MICFAST [8]: 256 mg/L
- MICFAST (K. pneumoniae isolate K16 (IMP-4), rough colony variant): 64 mg/L
- MICFAST (K. pneumoniae isolate K16 (IMP-4), smooth colony variant): 2 mg/L
- MIC (K. pneumoniae isolate K16, subculture of Day 1 meropenem-exposed culture, read-out: MIC by FAST on Day 2): 4 µg/mL
- MICFAST (K. pneumoniae isolate KS1, biological replicates): 4 mg/L and 1 mg/L and 2 mg/L
- FAST S/NS [9]: S (S: MIC ≤2 mg/L)
- MICFAST [9]: 1 mg/L (2×) and 2 mg/L
- MIC (K. pneumoniae susceptible type strain ATCC 700603, read-out: isolate's MIC (new contouring focus formed, FIG. 3A)): 0.25 µg/mL
- susceptibility-associated signature by AFC bi-axial plot (FIG. 3B) (highly resistant clinical K. pneumoniae strain K8, clinically relevant meropenem concentrations): absence of susceptibility-associated signature
- FAST S/NS (isolate 194, Sweden, VIM): NS (NS = MIC >2 mg/L)
- MICFAST (isolate 194, Sweden, VIM): 16 mg/L
- FAST S/NS (isolate 374, Sweden, VIM): NS (NS = MIC >2 mg/L)
- MICFAST (isolate 374, Sweden, VIM): 32 mg/L
- FAST S/NS (isolate 3354, Australia): S (S = MIC ≤2 mg/L)
- MICFAST (isolate 3354, Australia): 0.5 mg/L
- FAST S/NS (isolate 10924, Sweden, KPC): S (S = MIC ≤2 mg/L)
- MICFAST (isolate 10924, Sweden, KPC): 0.5 mg/L
- FAST S/NS (isolate 18397, Australia): S (S = MIC ≤2 mg/L)
- MICFAST (isolate 18397, Australia): ≤0.25 mg/L
- FAST S/NS (isolate 43288, Australia): S (S = MIC ≤2 mg/L)
- MICFAST (isolate 43288, Australia): ≤0.25 mg/L
- FAST S/NS (isolate 43292, Australia): S (S = MIC ≤2 mg/L)
- MICFAST (isolate 43292, Australia): ≤0.25 mg/L
- FAST S/NS (isolate 43358, Australia): S (S = MIC ≤2 mg/L)
- MICFAST (isolate 43358, Australia): ≤0.25 mg/L
- FAST S/NS (isolate 43854, Australia): S (S = MIC ≤2 mg/L)
- MICFAST (isolate 43854, Australia): ≤0.25 mg/L
- FAST S/NS (isolate 44271, Australia): S (S = MIC ≤2 mg/L)
- MICFAST (isolate 44271, Australia): 0.5 mg/L
- FAST S/NS (isolate 51575, Sweden, ESBL): S (S = MIC ≤2 mg/L)
- MICFAST (isolate 51575, Sweden, ESBL): ≤0.25 mg/L
- FAST S/NS (isolate 70708, Sweden, KPC): NS (NS = MIC >2 mg/L)
- MICFAST (isolate 70708, Sweden, KPC): 32 mg/L
- FAST S/NS (isolate 71076, Sweden, KPC): NS (NS = MIC >2 mg/L)
- MICFAST (isolate 71076, Sweden, KPC): 32 mg/L
- FAST S/NS (isolate 200822, Sweden, KPC): NS (NS = MIC >2 mg/L)
- MICFAST (isolate 200822, Sweden, KPC): 8 mg/L
- FAST S/NS (isolate 270902, England): S (S = MIC ≤2 mg/L)
- MICFAST (isolate 270902, England): ≤0.25 mg/L
- FAST S/NS (isolate 500638, Sweden, pAmpC): S (S = MIC ≤2 mg/L)
- MICFAST (isolate 500638, Sweden, pAmpC): 2 mg/L
- FAST S/NS (isolate 515870, Sweden, ESBL): S (S = MIC ≤2 mg/L)
- MICFAST (isolate 515870, Sweden, ESBL): ≤0.25 mg/L

From patent US20210292807A1, “METHOD FOR TESTING ANTIMICROBIAL SUSCEPTIBILITY” (priority 2017, published 2021)
